Patent publication US12226424B2, “Target protein degradation compounds, their anti-tumor use, their intermediates and use of intermediates” (ShanghaiTech University, priority 2018, dated 2025)
Where two headings read alike, the source gives them in different places.

Assays:
HEK293 cells = assay: Proliferation inhibition (IC50) on non-BCR-ABL-positive HEK293 cells
U937 cells = assay: Proliferation inhibition (IC50) on non-BCR-ABL-positive U937 cells
[1] = test system: K562 cells (BCR-ABL positive); assay: Half inhibitory concentration (IC50) on tumor cells, CCK-8, K562; conditions: read-out: IC50 (nM)/K562 cell line
Procedure: K562 cells were seeded in 100 μL of RPMI1640 complete medium at a density of 20,000 cells/well. 100 μL of the inoculated cells were treated with 100 μL diluted PROTAD compound of the present disclosure to be tested at 9 successively decreasing concentrations (starting at the highest concentration of 10 μM; 3-fold serial dilutions). After the cells were treated with the tested drugs for 48 hours, the cell viability determination was performed in accordance with CCK-8 reagent operating instructions. The negative control was DMSO, and positive control was a commercial inhibitor. After CCK-8 treatment for 2 h, the value of O.D.450 was measured using a microplate reader.

BCR-ABL = BCR-ABL (Homo sapiens, UniProt P00519); assay: Western-blot half-degradation concentration (DC50) / degradation of BCR-ABL in K562 cells; conditions: read-out: DC50 (nM)/K562 cell line, BCR-ABL protein degradation, 24 hours, Western-blot
[2] = test system: MDA-MB-436 cells (PARP-positive); assay: Half inhibitory concentration (IC50) on PARP-positive tumor cells, CCK-8, MDA-MB-436; format: cell-based; conditions: Homo sapiens, 72 hours, read-out: IC50 (μM)/MDA-MB-436 cell line
Procedure: PARP-positive cells MDA-MB-436 cells (human breast cancer cells) were purchased from the American Type Culture Collection (ATCC).
The cells used in this present disclosure were cultured in a 37° C. incubator containing 5% CO2. The complete cell culture medium was DMEM medium with 10% fetal bovine serum, and the final concentrations of penicillin and streptomycin were 100 U/mL, respectively. All cells were tested negative for mycoplasma with mycoplasma detection kit before the experiment.
Determination of Half Inhibitory Concentration (IC50) of PROTAD Compounds on Tumor Cells
MDA-MB-436 cells were seeded in 100 μL DMEM complete medium at a density of 3500 cells/well. 100 μL of the inoculated cells were treated with 0.5 μL diluted PROTAD compounds of the present disclosure to be tested at 10 successively decreasing concentrations (starting at the highest concentration of 50 μM; 3-fold serial dilutions). After the cells were treated with the tested drugs for 72 hours, cell viability was determined according to the CCK-8 reagent operating instructions. The negative control was DMSO, and the positive control was a commercial inhibitor. After CCK-8 treatment for 2 h, the value of O.D.450 was measured using a microplate reader.

[3] = Homo sapiens, HEK293, read-out: IC50 (nM)/HEK293 cell line
[4] = Homo sapiens, U-937, read-out: IC50 (nM)/U937 cell line

BCR-ABL, sequence (P00519 with tags, fused parts or gaps): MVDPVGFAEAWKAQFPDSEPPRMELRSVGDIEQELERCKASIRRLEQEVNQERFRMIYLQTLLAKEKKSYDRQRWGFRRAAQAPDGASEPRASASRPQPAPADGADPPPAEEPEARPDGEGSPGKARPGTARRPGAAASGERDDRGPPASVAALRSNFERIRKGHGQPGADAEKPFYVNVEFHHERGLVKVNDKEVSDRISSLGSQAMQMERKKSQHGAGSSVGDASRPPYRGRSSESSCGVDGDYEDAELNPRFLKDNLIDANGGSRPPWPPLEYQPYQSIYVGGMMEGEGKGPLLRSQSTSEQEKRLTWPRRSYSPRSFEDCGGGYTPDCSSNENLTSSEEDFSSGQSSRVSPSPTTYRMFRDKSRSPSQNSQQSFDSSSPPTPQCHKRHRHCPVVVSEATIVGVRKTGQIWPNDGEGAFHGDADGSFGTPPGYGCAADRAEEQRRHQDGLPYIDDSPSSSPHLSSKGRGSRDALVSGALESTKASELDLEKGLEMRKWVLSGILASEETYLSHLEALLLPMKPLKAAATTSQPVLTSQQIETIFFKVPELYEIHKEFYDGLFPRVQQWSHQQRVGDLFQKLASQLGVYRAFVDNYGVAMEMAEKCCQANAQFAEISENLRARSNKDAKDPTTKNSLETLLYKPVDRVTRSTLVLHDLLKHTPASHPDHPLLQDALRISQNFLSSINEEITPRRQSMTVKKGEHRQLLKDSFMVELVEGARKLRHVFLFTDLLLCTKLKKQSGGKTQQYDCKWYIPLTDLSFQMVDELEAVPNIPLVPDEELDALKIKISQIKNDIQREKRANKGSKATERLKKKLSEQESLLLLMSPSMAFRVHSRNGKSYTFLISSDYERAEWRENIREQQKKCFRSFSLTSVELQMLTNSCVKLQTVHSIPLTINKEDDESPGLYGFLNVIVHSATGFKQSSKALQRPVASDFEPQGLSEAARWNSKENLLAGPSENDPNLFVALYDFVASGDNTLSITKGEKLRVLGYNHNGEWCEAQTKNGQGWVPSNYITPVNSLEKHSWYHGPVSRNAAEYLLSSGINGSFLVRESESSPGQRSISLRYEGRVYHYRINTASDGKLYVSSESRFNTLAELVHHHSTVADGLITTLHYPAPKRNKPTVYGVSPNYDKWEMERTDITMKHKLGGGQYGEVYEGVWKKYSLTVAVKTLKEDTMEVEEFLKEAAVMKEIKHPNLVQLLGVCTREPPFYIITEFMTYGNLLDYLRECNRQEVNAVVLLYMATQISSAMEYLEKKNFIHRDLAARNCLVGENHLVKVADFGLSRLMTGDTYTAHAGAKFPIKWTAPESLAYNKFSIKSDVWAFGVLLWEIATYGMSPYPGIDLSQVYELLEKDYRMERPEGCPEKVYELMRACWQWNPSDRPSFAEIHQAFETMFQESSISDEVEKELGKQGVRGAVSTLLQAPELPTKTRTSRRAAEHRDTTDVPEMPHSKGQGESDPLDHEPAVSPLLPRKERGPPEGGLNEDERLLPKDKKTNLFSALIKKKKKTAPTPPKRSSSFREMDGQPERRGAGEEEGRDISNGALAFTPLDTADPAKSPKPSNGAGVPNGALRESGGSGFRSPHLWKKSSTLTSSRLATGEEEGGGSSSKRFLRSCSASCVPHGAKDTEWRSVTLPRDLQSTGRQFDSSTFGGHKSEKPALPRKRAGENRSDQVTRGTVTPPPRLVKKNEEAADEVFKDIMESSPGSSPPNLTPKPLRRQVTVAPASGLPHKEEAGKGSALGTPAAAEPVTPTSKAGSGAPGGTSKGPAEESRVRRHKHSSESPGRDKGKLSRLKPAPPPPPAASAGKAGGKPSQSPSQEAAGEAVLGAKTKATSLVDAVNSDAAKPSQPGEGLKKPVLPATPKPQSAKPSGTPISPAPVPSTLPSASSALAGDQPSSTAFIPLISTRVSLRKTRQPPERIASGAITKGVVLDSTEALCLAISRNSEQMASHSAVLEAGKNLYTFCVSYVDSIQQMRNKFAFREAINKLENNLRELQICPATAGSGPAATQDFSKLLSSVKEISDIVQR

Row | Structure (SMILES) | IC50 (U937 cells; [4]) [nM] | IC50 ([1]; Homo sapiens, K562, 48 h) [nM] | DC50 (BCR-ABL) [nM] | IC50 [2] [µM] | IC50 (HEK293 cells; [3]) [nM] | further results
1 | O=C1CCC(N2C(=O)c3cccc(SCCCC(=O)N4CCN(C(=O)c5cc(Cc6n[nH]c(=O)c7ccccc67)ccc5F)CC4)c3C2=O)C(=O)N1 (centres unmarked) [SIAIS180065, 2-(2,6-dioxopiperidin-3-yl)-4-((4-(4-(2-fluoro-5-((4-oxo-3,4-dihydrophthalazin-1-yl)methyl)benzoyl)piperazin-1-yl)-4-oxobutyl)thio)isoindoline-1,3-dione] |  |  |  | 3.82 |  | 
2 | O=C1CCC(N2C(=O)c3cccc(SCC(=O)N4CCN(C(=O)c5cc(Cc6n[nH]c(=O)c7ccccc67)ccc5F)CC4)c3C2=O)C(=O)N1 (centres unmarked) [SIAIS180063, 2-(2,6-dioxopiperidin-3-yl)-4-((2-(4-(2-fluoro-5-((4-oxo-3,4-dihydrophthalazin-1-yl)methyl)benzoyl)piperazin-1-yl)-2-oxoethyl)thio)isoindoline-1,3-dione] |  |  |  | 6.45 |  | 
3 | O=C1CCC(N2C(=O)c3cccc(SCCCCCCC(=O)N4CCN(C(=O)c5cc(Cc6n[nH]c(=O)c7ccccc67)ccc5F)CC4)c3C2=O)C(=O)N1 (centres unmarked) [SIAIS180068, 2-(2,6-dioxopiperidin-3-yl)-4-((7-(4-(2-fluoro-5-((4-oxo-3,4-dihydrophthalazin-1-yl)methyl)benzoyl)piperazin-1-yl)-7-oxoheptyl)thio)isoindoline-1,3-dione] |  |  |  | 2.09 |  | 
4 | O=C1CCC(N2C(=O)c3cccc(SCCCCCC(=O)N4CCN(C(=O)c5cc(Cc6n[nH]c(=O)c7ccccc67)ccc5F)CC4)c3C2=O)C(=O)N1 (centres unmarked) [SIAIS180067, 2-(2,6-dioxopiperidin-3-yl)-4-((6-(4-(2-fluoro-5-((4-oxo-3,4-dihydrophthalazin-1-yl)methyl)benzoyl)piperazin-1-yl)-6-oxohexyl)thio)isoindoline-1,3-dione] |  |  |  | 2.9 |  | 
5 | NC(=O)c1cccc2cn(-c3ccc([C@@H]4CCCNC4)cc3)nc12 [Niraparib, reference compound] |  |  |  | 1 |  | 
6 | COc1cc(Nc2c(C#N)cnc3cc(OCCCN4CCN(C)CC4)c(OC)cc23)c(Cl)cc1Cl [Bosutinib, reference compound] | > 10000 | 92.6 |  |  | > 10000 | 
7 | O=C1CCC(N2C(=O)c3cccc(SCCC(=O)N4CCN(C(=O)c5cc(Cc6n[nH]c(=O)c7ccccc67)ccc5F)CC4)c3C2=O)C(=O)N1 (centres unmarked) [SIAIS180064, 2-(2,6-dioxopiperidin-3-yl)-4-((3-(4-(2-fluoro-5-((4-oxo-3,4-dihydrophthalazin-1-yl)methyl)benzoyl)piperazin-1-yl)-3-oxopropyl)thio)isoindoline-1,3-dione] |  |  |  | 5.78 |  | 
8 | O=C(c1cc(Cc2n[nH]c(=O)c3ccccc23)ccc1F)N1CCN(C(=O)C2CC2)CC1 [Olaparib, reference compound] |  |  |  | 2.31 |  | 
9 | Cc1nc(Nc2ncc(C(=O)Nc3c(C)cccc3Cl)s2)cc(N2CCN(C(=O)CCCCCSc3cccc4c3CN(C3CCC(=O)NC3=O)C4=O)CC2)n1 (centres unmarked) [SIAIS 171109] |  |  |  |  |  | IC50 (HEK293 cells; read-out: IC50 (nM)/HEK293 cell line, HEK293 cells, highest concentration 10 μM): > 10000 nM; IC50 (U937 cells; read-out: IC50 (nM)/U937 cell line, U937 cells, highest concentration 10 μM): > 10000 nM; IC50 ([1]; K562 cells, 48 hours, CCK-8): 0.53 nM
10 | O=C1CCC(N2C(=O)c3cccc(SCCCCC(=O)N4CCN(C(=O)c5cc(Cc6n[nH]c(=O)c7ccccc67)ccc5F)CC4)c3C2=O)C(=O)N1 (centres unmarked) [SIAIS180066, 2-(2,6-dioxopiperidin-3-yl)-4-((5-(4-(2-fluoro-5-((4-oxo-3,4-dihydrophthalazin-1-yl)methyl)benzoyl)piperazin-1-yl)-5-oxopentyl)thio)isoindoline-1,3-dione] |  |  |  | 3.57 |  | 
11 | CNCc1ccc(-c2[nH]c3cc(F)cc4c3c2CCNC4=O)cc1 [Rucaparib, reference compound] |  |  |  | 1.12 |  | 

Second part, led by results:

Row | IC50 (U937 cells; [4]) [nM] | IC50 ([1]; Homo sapiens, K562, 48 h) [nM] | DC50 (BCR-ABL) [nM] | IC50 [2] [µM] | Structure (SMILES) | IC50 (HEK293 cells; [3]) [nM] | further results
12 | > 10000 | 1.33 |  |  | Cc1nc(Nc2ncc(C(=O)Nc3c(C)cccc3Cl)s2)cc(N2CCN(C(=O)CCCCCCSc3cccc4c3CN(C3CCC(=O)NC3=O)C4=O)CC2)n1 (centres unmarked) [SIAIS171110, N-(2-chloro-6-methylphenyl)-2-((6-(4-(7-((2-(2,6-dioxopiperidin-3-yl)-1-oxoisoindolin-4-yl)thio)heptanoyl)piperazin-1-yl)-2-methylpyrimidin-4-yl)amino)thiazole-5-carboxamide] | > 10000 | 
13 | > 10000 | 148 | 483 |  | Cc1nc(Nc2ncc(C(=O)Nc3c(C)cccc3Cl)s2)cc(N2CCN(C(=O)C[S+]([O-])c3cccc4c3C(=O)N(C3CCC(=O)NC3=O)C4=O)CC2)n1 (centres unmarked) [SIAIS151109, N-(2-chloro-6-methylphenyl)-2-((6-(4-(2-((2-(2,6-dioxopiperidin-3-yl)-1,3-dioxoisoindolin-4-yl)sulfinyl)acetyl)piperazin-1-yl)-2-methylpyrimidin-4-yl)amino)thiazole-5-carboxamide] | > 10000 | 
14 | > 10000 | 1.74 | 10.3 |  | Cc1nc(Nc2ncc(C(=O)Nc3c(C)cccc3Cl)s2)cc(N2CCN(C(=O)CCSc3cccc4c3CN(C3CCC(=O)NC3=O)C4=O)CC2)n1 (centres unmarked) [SIAIS171106, N-(2-chloro-6-methylphenyl)-2-((6-(4-(3-((2-(2,6-dioxopiperidin-3-yl)-1-oxoisoindolin-4-yl)thio)propanoyl)piperazin-1-yl)-2-methylpyrimidin-4-yl)amino)thiazole-5-carboxamide] | > 10000 | 
15 | > 10000 | 206 | 245 |  | Cc1nc(Nc2ncc(C(=O)Nc3c(C)cccc3Cl)s2)cc(N2CCN(C(=O)CS(=O)(=O)c3cccc4c3C(=O)N(C3CCC(=O)NC3=O)C4=O)CC2)n1 (centres unmarked) [SIAIS151108, N-(2-chloro-6-methylphenyl)-2-((6-(4-(2-((2-(2,6-dioxopiperidin-3-yl)-1,3-dioxoisoindolin-4-yl)sulfonyl)acetyl)piperazin-1-yl)-2-methylpyrimidin-4-yl)amino)thiazole-5-carboxamide] | > 10000 | 
16 | > 10000 | 0.49 | < 1 |  | Cc1nc(Nc2ncc(C(=O)Nc3c(C)cccc3Cl)s2)cc(N2CCN(CCSc3cccc4c3C(=O)N(C3CCC(=O)NC3=O)C4=O)CC2)n1 (centres unmarked) [SIAIS172056, N-(2-chloro-6-methylphenyl)-2-((6-(4-(2-((2-(2,6-dioxopiperidin-3-yl)-1,3-dioxoisoindolin-4-yl)thio)ethyl)piperazin-1-yl)-2-methylpyrimidin-4-yl)amino)thiazole-5-carboxamide] | > 10000 | 
17 | > 10000 | 3.2 | < 1 |  | Cc1nc(Nc2ncc(C(=O)Nc3c(C)cccc3Cl)s2)cc(N2CCN(C(=O)CSc3cccc4c3C(=O)N(C3CCC(=O)NC3=O)C4=O)CC2)n1 (centres unmarked) [SIAIS151110, N-(2-chloro-6-methylphenyl)-2-((6-(4-(2-((2-(2,6-dioxopiperidin-3-yl)-1,3-dioxoisoindolin-4-yl)thio)acetyl)piperazin-1-yl)-2-methylpyrimidin-4-yl)amino)thiazole-5-carboxamide] | > 10000 | 
18 | > 10000 | 0.54 | < 1 |  | Cc1nc(Nc2ncc(C(=O)Nc3c(C)cccc3Cl)s2)cc(N2CCN(C(=O)CCCCSc3cccc4c3CN(C3CCC(=O)NC3=O)C4=O)CC2)n1 (centres unmarked) [SIAIS171108, N-(2-chloro-6-methylphenyl)-2-((6-(4-(5-((2-(2,6-dioxopiperidin-3-yl)-1-oxoisoindolin-4-yl)thio)pentanoyl)piperazin-1-yl)-2-methylpyrimidin-4-yl)amino)thiazole-5-carboxamide] | > 10000 | 
19 | > 10000 | 5.71 | 56.7 |  | Cc1nc(Nc2ncc(C(=O)Nc3c(C)cccc3Cl)s2)cc(N2CCN(C(=O)CSc3cccc4c3CN(C3CCC(=O)NC3=O)C4=O)CC2)n1 (centres unmarked) [SIAIS171105, N-(2-chloro-6-methylphenyl)-2-((6-(4-(2-((2-(2,6-dioxopiperidin-3-yl)-1-oxoisoindolin-4-yl)thio)acetyl)piperazin-1-yl)-2-methylpyrimidin-4-yl)amino)thiazole-5-carboxamide] | > 10000 | 
20 | > 10000 | 1.4 | 5.2 |  | Cc1nc(Nc2ncc(C(=O)Nc3c(C)cccc3Cl)s2)cc(N2CCN(C(=O)CCCSc3cccc4c3CN(C3CCC(=O)NC3=O)C4=O)CC2)n1 (centres unmarked) [SIAIS171107, N-(2-chloro-6-methylphenyl)-2-((6-(4-(4-((2-(2,6-dioxopiperidin-3-yl)-1-oxoisoindolin-4-yl)thio)butanoyl)piperazin-1-yl)-2-methylpyrimidin-4-yl)amino)thiazole-5-carboxamide] | > 10000 | 
